Consider four compounds from patent publication US20250382344A1, “Soluble GLP1/GIP/NPY2 Receptor Triple Agonists” (Boehringer Ingelheim International GmH, priority 2024, published 2025).

The target of data set [1] is T1, hNPY2R (Homo sapiens, UniProt P49146).
T1 construct: expressed in transfected cells; host or cells: HEK-293 CRE-luciferase reporter cells
T1 sequence (P49146 1-381): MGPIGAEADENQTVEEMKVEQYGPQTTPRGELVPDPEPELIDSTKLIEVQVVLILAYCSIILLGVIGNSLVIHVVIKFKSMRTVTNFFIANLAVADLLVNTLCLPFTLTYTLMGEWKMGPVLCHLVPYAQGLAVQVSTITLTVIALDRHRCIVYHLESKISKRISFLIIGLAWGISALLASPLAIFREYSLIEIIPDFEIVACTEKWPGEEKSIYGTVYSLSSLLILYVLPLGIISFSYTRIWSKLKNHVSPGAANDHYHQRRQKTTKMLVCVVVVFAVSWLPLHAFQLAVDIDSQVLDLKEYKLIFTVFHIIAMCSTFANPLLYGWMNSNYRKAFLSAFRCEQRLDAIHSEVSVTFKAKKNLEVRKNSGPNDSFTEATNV
Briefly: hNPY2R CreLuc assay in 0.5% and 100% plasma (HEK-293 CRE-luciferase reporter cells). It counts as cell-based. The settings on record: HEK-293 reporter cells. From the text:
CHO and HEK-293 recombinant cell lines express a luciferase reporter gene under control of the CAMP responsive element (CRE). As a second recombinant protein the GLP-1 and NPY2 receptors were expressed in the reporter gene HEK cells, and the GIP receptor was expressed in the reporter gene CHO cells, respectively. Stimulation of these recombinant cells with an agonist leads to an increase of intracellular CAMP levels. In the presence of CAMP, the transcription factor CRE binding protein (CREB) binds to the CRE and to the CREB binding protein (CBP), which leads to transcription of the luciferase reporter gene. Peptides upon serial-dilution in 100% DMSO were transferred into 384-well assay plates with 5 μl pre-dispensed assay buffer (1×HBSS, 20 mM HEPES, pH7.4 supplemented with 0.5% human plasma) using acoustic dispensing on a Labcyte ECHO. Cryo-preserved transgenic reporter gene cells were thawed in assay buffer. 20 μl (10.000 cells/well) were added to the plate with the peptides and incubated for 4 hours at 37° C. in a humidified incubator. Following incubation, assay plates are equilibrated to room temperature, followed by addition of 25 μl of Bright-Glo™ Luciferase reagent, incubation at room temperature for 10 minutes and analysis of luminescence (Envision Reader). […] EC50 values were calculated by non-linear regression using sigmoid concentration-response with variable slope.
The same assays were run in the presence of 100% plasma with no additional buffer constituents.
For orientation: A reporter such as luciferase makes a cellular process visible.

Data set [2] deals with T2, hGIPR (Homo sapiens, UniProt P48546).
T2 construct: expressed in transfected cells; host or cells: CHO CRE-luciferase reporter cells
T2 sequence (P48546 22-466): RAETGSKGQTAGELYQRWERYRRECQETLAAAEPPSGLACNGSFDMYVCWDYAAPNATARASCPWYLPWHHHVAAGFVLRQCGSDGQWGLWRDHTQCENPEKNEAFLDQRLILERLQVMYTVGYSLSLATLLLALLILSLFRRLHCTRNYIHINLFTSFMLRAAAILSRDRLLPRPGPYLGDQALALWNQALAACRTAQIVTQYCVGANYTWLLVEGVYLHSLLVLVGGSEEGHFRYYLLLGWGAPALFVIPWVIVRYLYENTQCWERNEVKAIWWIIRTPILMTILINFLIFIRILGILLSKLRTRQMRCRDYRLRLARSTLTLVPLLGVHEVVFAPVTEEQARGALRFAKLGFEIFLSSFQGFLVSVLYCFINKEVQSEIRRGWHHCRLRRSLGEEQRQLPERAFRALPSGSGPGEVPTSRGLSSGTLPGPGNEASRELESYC
Briefly: hGIPR CreLuc assay in 0.5% and 100% plasma (CHO CRE-luciferase reporter cells). The format is cell-based.

A short description of data set [3]: Solubility in 0.1 M phosphate buffer at pH 7. It counts as physicochemical. The settings on record: 0.1 M phosphate buffer at pH 7, 10 mg/mL final peptide concentration, shaking 2 hours at room temperature, peptides as TFA-salts; measured sample pH 6.5-7.0.
[4] abbreviates: 100% human plasma, read-out: hNPY2R 100% hP.
Setting [5] is: 0.5% human plasma, read-out: hGIPR 0.5% hP.

Read-outs that look alike come from different tables or passages of the source.

On to `CC[C@H](C)[C@H](NC(=O)[C@H](CC(C)C)NC(=O)[C@H](Cc1c[nH]cn1)NC(=O)[C@H](CCCNC(=N)N)NC(=O)[C@@H](NC(=O)[C@H](Cc1ccccc1)NC(=O)[C@H](CCC(=O)O)NC(=O)C(C)(C)NC(=O)[C@H](CCC(N)=O)NC(=O)[C@H](C)NC(=O)[C@H](CCC(N)=O)NC(=O)[C@H](CCCCN)NC(=O)[C@H](CCC(=O)O)NC(=O)[C@H](CC(C)C)NC(=O)C(C)(C)NC(=O)[C@@H](NC(=O)[C@H](CO)NC(=O)[C@H](Cc1ccc(O)cc1)NC(=O)[C@H](CC(=O)O)NC(=O)[C@H](CO)NC(=O)[C@@H](NC(=O)[C@H](Cc1ccccc1)NC(=O)[C@@H](NC(=O)CNC(=O)[C@H](CCC(=O)O)NC(=O)C(C)(C)NC(=O)[C@@H](N)Cc1ccc(O)cc1)[C@@H](C)O)[C@@H](C)O)[C@@H](C)CC)C(C)C)C(=O)N[C@@H](CC(N)=O)C(=O)N[C@@H](CCCCNC(=O)[C@@H](N)CCCCNC(=O)CC[C@H](NC(=O)CC[C@H](NC(=O)CC[C@H](NC(=O)CC[C@H](NC(=O)CC[C@H](NC(=O)CC[C@H](NC(=O)CCCCCCCCCCCCCCCCCCC(=O)O)C(=O)O)C(=O)O)C(=O)O)C(=O)O)C(=O)O)C(=O)O)C(=O)N[C@@H](CC(C)C)C(=O)N[C@H](C(=O)N[C@@H](CCCNC(=N)N)C(=O)N[C@@H](CCC(N)=O)C(=O)N[C@@H](CCCNC(=N)N)C(=O)N[C@@H](Cc1ccc(O)cc1)C(N)=O)[C@@H](C)O` [Compound 39, Y-Aib-E-G-T-F-T-S-D-Y-S-I-Aib-L-E-K-Q-A-Q-Aib-E-F-V-R-H-L-I-N-K(1,3)-L-T-R-Q-R-Y-NH2.C20DA-gGlu-gGlu-gGlu-gGlu-gGlu-gGlu-eLys(1,2)], for which the EC50 in data set [1] (setting [4]) amounted to 119 nM; in data set [2] (setting [5]), 0.9 nM. In addition, the solubility at 2 h in data set [3] stood at 4500 µg/mL.

As for `CC[C@H](C)[C@H](NC(=O)[C@H](CC(C)C)NC(=O)[C@H](Cc1c[nH]cn1)NC(=O)[C@H](CCCNC(=N)N)NC(=O)[C@@H](NC(=O)[C@H](Cc1ccccc1)NC(=O)[C@H](C)NC(=O)C(C)(C)NC(=O)[C@H](CCC(N)=O)NC(=O)[C@H](C)NC(=O)[C@H](CCC(N)=O)NC(=O)[C@H](CCCCN)NC(=O)[C@H](CCC(=O)O)NC(=O)[C@H](CC(C)C)NC(=O)C(C)(C)NC(=O)[C@@H](NC(=O)[C@H](CO)NC(=O)[C@H](Cc1ccc(O)cc1)NC(=O)[C@H](CC(=O)O)NC(=O)[C@H](CO)NC(=O)[C@@H](NC(=O)[C@H](Cc1ccccc1)NC(=O)[C@@H](NC(=O)CNC(=O)[C@H](CCC(=O)O)NC(=O)C(C)(C)NC(=O)[C@@H](N)Cc1ccc(O)cc1)[C@@H](C)O)[C@@H](C)O)[C@@H](C)CC)C(C)C)C(=O)N[C@@H](CC(N)=O)C(=O)N[C@@H](CCCCNC(=O)COCCOCCNC(=O)CC[C@H](NC(=O)CC[C@H](NC(=O)CC[C@H](NC(=O)CC[C@H](NC(=O)CC[C@H](NC(=O)CC[C@H](NC(=O)CCCCCCCCCCCCCCCCCCC(=O)O)C(=O)O)C(=O)O)C(=O)O)C(=O)O)C(=O)O)C(=O)O)C(=O)NC(C)(C)C(=O)N[C@H](C(=O)N[C@@H](CCCNC(=N)N)C(=O)N[C@@H](CCC(N)=O)C(=O)N[C@@H](CCCNC(=N)N)C(=O)N[C@@H](Cc1ccc(O)cc1)C(N)=O)[C@@H](C)O` [Compound 99, Y-Aib-E-G-T-F-T-S-D-Y-S-I-Aib-L-E-K-Q-A-Q-Aib-A-F-V-R-H-L-I-N-K(1,3)-Aib-T-R-Q-R-Y-NH2.C20DA-gGlu-gGlu-gGlu-gGlu-gGlu-gGlu-OEG(1,2)], the EC50 in data set [1] (setting [4]) worked out at 125 nM; in data set [2] (setting [5]), 0.5 nM. The solubility at 2 h in data set [3] was found to be 10000 µg/mL.

With `CC[C@H](C)[C@H](NC(=O)[C@H](CO)NC(=O)[C@H](Cc1ccc(O)cc1)NC(=O)[C@H](CC(=O)O)NC(=O)[C@H](CO)NC(=O)[C@@H](NC(=O)[C@H](Cc1ccccc1)NC(=O)[C@@H](NC(=O)CNC(=O)[C@H](CCC(=O)O)NC(=O)C(C)(C)NC(=O)[C@@H](N)Cc1ccc(O)cc1)[C@@H](C)O)[C@@H](C)O)C(=O)NC(C)(C)C(=O)N[C@@H](CC(C)C)C(=O)N[C@@H](CCC(=O)O)C(=O)N[C@@H](CCCCN)C(=O)N[C@@H](CCC(N)=O)C(=O)N[C@@H](C)C(=O)N[C@@H](CCC(N)=O)C(=O)NC(C)(C)C(=O)N[C@@H](C)C(=O)N[C@@H](Cc1ccccc1)C(=O)N[C@H](C(=O)N[C@@H](CCCNC(=N)N)C(=O)N[C@@H](Cc1c[nH]cn1)C(=O)N[C@@H](CC(C)C)C(=O)N[C@@H](CC(C)C)C(=O)N[C@@H](CC(N)=O)C(=O)N[C@@H](CCCCNC(=O)[C@@H](N)CCCCNC(=O)CC[C@H](NC(=O)CC[C@H](NC(=O)CC[C@H](NC(=O)CC[C@H](NC(=O)CC[C@H](NC(=O)CC[C@H](NC(=O)CCCCCCCCCCCCCCCCC(=O)O)C(=O)O)C(=O)O)C(=O)O)C(=O)O)C(=O)O)C(=O)O)C(=O)NC(C)(C)C(=O)N[C@H](C(=O)N[C@@H](CCCNC(=N)N)C(=O)N[C@@H](CCC(N)=O)C(=O)N[C@@H](CCCNC(=N)N)C(=O)N[C@@H](Cc1ccc(O)cc1)C(N)=O)[C@@H](C)O)C(C)C` [Compound 107, Y-Aib-E-G-T-F-T-S-D-Y-S-I-Aib-L-E-K-Q-A-Q-Aib-A-F-V-R-H-L-L-N-K(1,3)-Aib-T-R-Q-R-Y-NH2.C18DA-gGlu-gGlu-gGlu-gGlu-gGlu-gGlu-eLys(1,2)], the EC50 in data set [1] (0.5% human plasma, read-out: hNPY2R 0.5% hP) is 13.3 nM; in data set [1] (setting [4]) it was 20.3 nM; in data set [2] (setting [5]) it was 0.7 nM. Also, the solubility at 2 h in data set [3] stood at 3900 µg/mL.

As to `CC[C@H](C)[C@H](NC(=O)[C@H](CC(C)C)NC(=O)[C@H](Cc1c[nH]cn1)NC(=O)[C@H](CCCNC(=N)N)NC(=O)[C@@H](NC(=O)[C@H](Cc1ccccc1)NC(=O)[C@H](C)NC(=O)C(C)(C)NC(=O)[C@H](CCC(N)=O)NC(=O)[C@H](C)NC(=O)[C@H](CCC(N)=O)NC(=O)[C@H](CCCCN)NC(=O)[C@H](CCC(=O)O)NC(=O)[C@H](CC(C)C)NC(=O)C(C)(C)NC(=O)[C@@H](NC(=O)[C@H](CO)NC(=O)[C@H](Cc1ccc(O)cc1)NC(=O)[C@H](CC(=O)O)NC(=O)[C@H](CO)NC(=O)[C@@H](NC(=O)[C@H](Cc1ccccc1)NC(=O)[C@@H](NC(=O)CNC(=O)[C@H](CCC(=O)O)NC(=O)C(C)(C)NC(=O)[C@@H](N)Cc1ccc(O)cc1)[C@@H](C)O)[C@@H](C)O)[C@@H](C)CC)C(C)C)C(=O)N[C@@H](CC(N)=O)C(=O)N[C@@H](CCCCNC(=O)COCCOCCNC(=O)CC[C@H](NC(=O)CC[C@H](NC(=O)CC[C@H](NC(=O)CC[C@H](NC(=O)CC[C@H](NC(=O)CCCCCCCCCCCCCCCCC(=O)O)C(=O)O)C(=O)O)C(=O)O)C(=O)O)C(=O)O)C(=O)NC(C)(C)C(=O)N[C@H](C(=O)N[C@@H](CCCNC(=N)N)C(=O)N[C@@H](CCC(N)=O)C(=O)N[C@@H](CCCNC(=N)N)C(=O)N[C@@H](Cc1ccc(O)cc1)C(N)=O)[C@@H](C)O` [Compound 140, Y-Aib-E-G-T-F-T-S-D-Y-S-I-Aib-L-E-K-Q-A-Q-Aib-A-F-V-R-H-L-I-N-K(1,3)-Aib-T-R-Q-R-Y-NH2.C18DA-gGlu-gGlu-gGlu-gGlu-gGlu-OEG(1,2)], the EC50 in data set [1] (setting [4]) came out at 141 nM; in data set [2] (setting [5]), 0.2 nM; in data set [2] (100% human plasma, read-out: hGIPR 100% hP), 8 nM. In addition, the solubility at 2 h in data set [3] came to 4900 µg/mL.

By solubility is commonly meant the dissolved amount per volume that the medium holds.
